Experimental data reported in the NIST ThermoML archive (doi:10.1016/j.tca.2012.07.004).

Experiment: xn = mol fraction of the nth substance listed
Conditions: 101 kPa, Liquid; for mass density: Vibrating tube method; for viscosity: Vibrating wire viscometry; for speed of sound: ultrasonic interferometer

C[NH+](C)C.O=P([O-])(O)O [trimethylammonium dihydrogen phosphate] + CN1CCCC1=O
Conditions | mass density [kg/m3] | speed of sound [m/s] | viscosity [mPa·s]
298.15 K, x1 = 0.0201 | 1041.43 | 1573 | 2.89
298.15 K, x1 = 0.0391 | 1053.47 | 1586 | 6.08
298.15 K, x1 = 0.1028 | 1089.8 | 1610 | 13.47
298.15 K, x1 = 0.1462 | 1113.92 | 1626 | 18.44
298.15 K, x1 = 0.211 | 1148.18 | 1653 | 25.04
298.15 K, x1 = 0.3267 | 1196.88 | 1680 | 30.52
298.15 K, x1 = 0.3746 | 1213.72 | 1686 | 31.03
298.15 K, x1 = 0.4469 | 1236.58 | 1695 | 31.16
298.15 K, x1 = 0.5751 | 1270.11 | 1695 | 27.7
298.15 K, x1 = 0.7093 | 1297.11 | 1691 | 21.12
298.15 K, x1 = 0.852 | 1325.36 | 1673 | 12.99
298.15 K, x1 = 0.9413 | 1342.23 | 1665 | 8.68
298.15 K, x1 = 0.9719 | 1348.52 | 1665 | 7.48
298.15 K, x1 = 1 | 1353.61 | 1672 | 7.64
303.15 K, x1 = 0.0201 | 1034.74 | 1570 | 2.13
303.15 K, x1 = 0.0391 | 1045.35 | 1582 | 3.98
303.15 K, x1 = 0.1028 | 1081.42 | 1604 | 11.55
303.15 K, x1 = 0.1462 | 1104.62 | 1624 | 15.87
303.15 K, x1 = 0.211 | 1136.57 | 1644 | 21.79
303.15 K, x1 = 0.3267 | 1183.7 | 1671 | 26.64
303.15 K, x1 = 0.3746 | 1200.24 | 1679 | 27.3
303.15 K, x1 = 0.4469 | 1223.4 | 1692 | 26.98
303.15 K, x1 = 0.5751 | 1257.32 | 1692 | 24.1
303.15 K, x1 = 0.7093 | 1286.38 | 1690 | 18.07
303.15 K, x1 = 0.852 | 1317.91 | 1675 | 10.86
303.15 K, x1 = 0.9413 | 1337.6 | 1663 | 7.93
303.15 K, x1 = 0.9719 | 1344.48 | 1662 | 6.79
303.15 K, x1 = 1 | 1350.62 | 1660 | 6.46
308.15 K, x1 = 0.0201 | 1028.37 | 1550 | 1.54
308.15 K, x1 = 0.0391 | 1038.12 | 1564 | 2.3
308.15 K, x1 = 0.1028 | 1073.87 | 1587 | 8.69
308.15 K, x1 = 0.1462 | 1095.84 | 1606 | 11.98
308.15 K, x1 = 0.211 | 1126.55 | 1633 | 16.24
308.15 K, x1 = 0.3267 | 1173.1 | 1663 | 20.11
308.15 K, x1 = 0.3746 | 1189.72 | 1673 | 20.71
308.15 K, x1 = 0.4469 | 1213.08 | 1688 | 20.64
308.15 K, x1 = 0.5751 | 1248.1 | 1693 | 18.68
308.15 K, x1 = 0.7093 | 1279.47 | 1691 | 14.21
308.15 K, x1 = 0.852 | 1311.88 | 1685 | 8.83
308.15 K, x1 = 0.9413 | 1332.36 | 1675 | 7.25
308.15 K, x1 = 0.9719 | 1339.9 | 1673 | 6.6
308.15 K, x1 = 1 | 1347.59 | 1661 | 5.61
313.15 K, x1 = 0.0201 | 1023.28 | 1544 | 1.47
313.15 K, x1 = 0.0391 | 1031.97 | 1560 | 2.82
313.15 K, x1 = 0.1028 | 1065.17 | 1588 | 6.92
313.15 K, x1 = 0.1462 | 1086.37 | 1608 | 9.58
313.15 K, x1 = 0.211 | 1116.83 | 1637 | 12.74
313.15 K, x1 = 0.3267 | 1161.79 | 1672 | 16.43
313.15 K, x1 = 0.3746 | 1178.19 | 1684 | 16.55
313.15 K, x1 = 0.4469 | 1201.94 | 1702 | 16.53
313.15 K, x1 = 0.5751 | 1237.68 | 1708 | 15.2
313.15 K, x1 = 0.7093 | 1270.77 | 1704 | 11.9
313.15 K, x1 = 0.852 | 1305.61 | 1697 | 7.17
313.15 K, x1 = 0.9413 | 1327.25 | 1684 | 6.73
313.15 K, x1 = 0.9719 | 1335.1 | 1682 | 5.76
313.15 K, x1 = 1 | 1344.53 | 1664 | 5.07
